Measured values published in patent publication US20240342138A1, “MICROTUBULE TARGETING AGENTS” (BPGbio, Inc., priority 2023, published 2024).

What was measured:
DU145 cells = test: In vitro potency, ATPlite 1Step (NTRC Oncolines); type: cell-based; settings: Homo sapiens, DU-145
Procedure: FIG. 12A-12E show the efficacy of Compound lin a prostate cancer xenograft model (DU145). A) In vitro potency of Compound 1 in DU145 cells as evaluated by ATPlite 1Step™ Perkin Elmer (performed by NTRC Oncolines). B) DU145 cells were implanted subcutaneously in nude mice and tumors were allowed to grow to a volume of 210 mm^3 followed by randomization of animals into three (3) groups (vehicle control, 75 mg/kg, 150 mg/kg Compound 1) with 12 animals per group. A Compound 1 solid dispersion was prepared prior to each dosing and administered by oral gavage two times a day (BID). Mean tumor volume of each group over time and the growth of tumor in each individual animal was graphed. For each individual animal of […] group TGI (%) was calculated based on the tumor growth inhibition of individual tumor at each given day of the study compared to the average of the group for that given day of the study. P-values were calculated using two-tailed distribution and two-sample equal variance (homoscedastic) for each group treated with Compound 1 for each given day of the study in reference to vehicle control. NS p>0.05; *p≤0.05; **p≤0.01; ***p p≤0.001; **** p≤0.0001. […] The level of two biomarkers, pHH3 and CCNB1 in each tissue was measured and graphed as the Min-to-Max plot and scatter plot of the level of each biomarker. […]

C6 rat glioma cells = test: Orthotopic syngeneic C6 glioma model; type: in vivo, Sprague Dawley rats
Description: FIG. 14A-14E show the efficacy of Compound 1 in glioblastoma cell lines in vitro and in a glioblastoma rat model (C6). A) In vitro potency of Compound 1 in four different glioblastoma cell lines as evaluated by Realtime-Glo™ assay (C6, and U87 cells) or ATPlite 1Step™ Perkin Elmer (performed by NTRC Oncolines; T98G and A-172 cells). B) Study design overview: C6 rat glioma cells (3×10^5) were implanted into the right entorhinal cortex/subiculum region of male Sprague Dawley rats and tumor burden was assessed 14 days post inoculation using MRI and animals randomized into […] (4) groups (vehicle control, 5 mg/kg, 10 mg/kg, and 20 mg/kg Compound 1) with 4 animals per group. […] C) Body weights were measured every two days. […]
Glioblastoma (GBM) is the most common and highly malignant form of primary brain tumor with a poor prognosis despite advances in treatments. […] Accordingly, the in vitro potency of Compound 1 was examined in four different glioblastoma cell lines as evaluated by Realtime-Glo™ assay (C6, and U87 cells) or ATPlite 1Step™ Perkin Elmer (performed by NTRC Oncolines; T98G and A-172 cells). […] Therefore, the in vivo tumor activity of Compound 1 was next assessed in Sprague Dawley rats implanted with C6 rat glioma cells into the right entorhinal cortex/subiculum region (AP: −7 mm; ML: 4.5 mm, DV: 5 mm). […]

COc1ccccc1-c1nc(CNC(=O)c2ccccc2OC(F)F)n[nH]1 [Compound 1, 2-(difluoromethoxy)-N-[[5-(2-methoxyphenyl)-1H-1,2,4-triazol-3-yl]methyl]benzamide]
IC50 (DU145 cells; DU145): 77 nM
Emax (DU145 cells; DU145, in vitro, read-out: Maximum effect (%)): 91%
Animals still alive at day 60 post-treatment initiation (C6 rat glioma cells; 2 in each treatment group (5, 10, 20 mg/kg)): six
MRI imaging of surviving animals (C6 rat glioma cells; FIG. 14E): reduction in tumor size and tumor fragmentation
